Measurements published in US20190119348A1, “PARATHYROID HORMONE RECEPTOR 1 ANTAGONIST AND INVERSE AGONIST POLYPEPTIDES AND METHODS OF THEIR USE” (The General Hospital Corporation, priority 2016, published 2019).
pIC50: −log10 of the molar value. Read-outs that look alike come from different tables or passages of the source. Where a SMILES comes first, the peptide text is derived from it. [ ]: non-standard residue; d: D form. Nle = CCCC[C@H](N)C(=O)O

Target: T1, endogenous hPTHR1 (Homo sapiens, UniProt Q03431)
T1 construct: Saos-2, in which is endogenously expressed the hPTHR1; endogenous in cells
T1 sequence (Q03431 27-593): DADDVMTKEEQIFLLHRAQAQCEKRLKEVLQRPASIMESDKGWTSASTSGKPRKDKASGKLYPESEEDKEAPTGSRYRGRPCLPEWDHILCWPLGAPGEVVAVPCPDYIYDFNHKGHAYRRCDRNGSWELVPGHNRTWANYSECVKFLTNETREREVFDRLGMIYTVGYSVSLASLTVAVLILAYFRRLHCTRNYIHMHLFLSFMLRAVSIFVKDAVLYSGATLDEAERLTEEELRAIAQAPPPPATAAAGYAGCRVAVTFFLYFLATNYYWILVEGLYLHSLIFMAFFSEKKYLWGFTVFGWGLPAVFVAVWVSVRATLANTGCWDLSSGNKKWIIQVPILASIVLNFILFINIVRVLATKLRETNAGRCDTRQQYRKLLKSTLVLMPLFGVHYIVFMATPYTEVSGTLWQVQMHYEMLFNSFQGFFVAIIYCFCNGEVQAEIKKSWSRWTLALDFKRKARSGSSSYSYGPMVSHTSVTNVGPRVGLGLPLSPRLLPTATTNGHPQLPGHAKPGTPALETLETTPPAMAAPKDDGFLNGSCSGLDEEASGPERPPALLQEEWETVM
Test: Antagonism of PTH(1-34)- and PTHrP(1-36)-induced cAMP response (GloSensor) in SGS-72 cells
Assay type: cell-based
Summary of the method: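 SaOS2-derived SGS-72 cells, which express endogenous hPTHR1 and a stable GloSensor cAMP reporter, were loaded with 0.5 mM luciferin for 15 min at room temperature in CO2-independent medium with 0.1% BSA. Antagonist was tested against PTH(1-34) or PTHrP(1-36), with luminescence taken at the agonist-alone maximum; pIC50 came from four-parameter fits.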

[1] = IC50 PTH(1-34) (Table 6, nanomolar value), antagonist pre-treatment 15 minutes, PTH(1-34) 0.3 nM

Structure (SMILES) | pIC50 [1] | other results
CCCC[C@H](NC(=O)[C@@H](N)CC(C)C)C(=O)N[C@@H](Cc1c[nH]cn1)C(=O)N[C@@H](CCC(N)=O)C(=O)N[C@@H](CC(C)C)C(=O)N[C@H](Cc1c[nH]c2ccccc12)C(=O)N[C@@H](CCCCN)C(=O)N[C@@H](Cc1c[nH]c2ccccc12)C(=O)N[C@H](C(=O)N[C@@H](CCC(N)=O)C(=O)N[C@@H](CC(=O)O)C(=O)N[C@@H](C)C(=O)N[C@@H](CCCNC(=N)N)C(=O)N[C@@H](CCCNC(=N)N)C(=O)N[C@@H](CCCNC(=N)N)C(=O)N[C@@H](C)C(=O)N[C@@H](Cc1c[nH]c2ccccc12)C(=O)N[C@@H](CC(C)C)C(=O)N[C@@H](Cc1c[nH]cn1)C(=O)N[C@@H](CCCCN)C(=O)N[C@@H](CC(C)C)C(=O)N[C@H](C(=O)N[C@@H](C)C(=O)N[C@@H](CCC(=O)O)C(=O)N[C@H](C(=O)N[C@@H](Cc1c[nH]cn1)C(=O)N[C@H](C(=O)N[C@@H](C)C(=O)N[C@@H](CCC(=O)O)C(=O)N[C@H](C(N)=O)[C@@H](C)CC)[C@@H](C)O)[C@@H](C)CC)[C@@H](C)CC)[C@@H](C)CC [compound 1997, Nle8,L11, dW12, W23-LA-PTH(7-36)-1997] (H-L[Nle]HQL[dW]KWIQDARRRAWLHKLIAEIHTAEI-NH2; N-terminus assumed) | 8.68 | –
CCCC[C@H](NC(=O)[C@H](CC(C)C)NC(=O)[C@H](CCC(N)=O)NC(=O)[C@@H](N)[C@@H](C)CC)C(=O)N[C@@H](Cc1c[nH]cn1)C(=O)N[C@@H](CCC(N)=O)C(=O)N[C@@H](CC(C)C)C(=O)N[C@H](Cc1c[nH]c2ccccc12)C(=O)N[C@@H](CCCCN)C(=O)N[C@@H](Cc1c[nH]c2ccccc12)C(=O)N[C@H](C(=O)N[C@@H](CCC(N)=O)C(=O)N[C@@H](CC(=O)O)C(=O)N[C@@H](C)C(=O)N[C@@H](CCCNC(=N)N)C(=O)N[C@@H](CCCNC(=N)N)C(=O)N[C@@H](CCCNC(=N)N)C(=O)N[C@@H](C)C(=O)N[C@@H](Cc1c[nH]c2ccccc12)C(=O)N[C@@H](CC(C)C)C(=O)N[C@@H](Cc1c[nH]cn1)C(=O)N[C@@H](CCCCN)C(=O)N[C@@H](CC(C)C)C(=O)N[C@H](C(=O)N[C@@H](C)C(=O)N[C@@H](CCC(=O)O)C(=O)N[C@H](C(=O)N[C@@H](Cc1c[nH]cn1)C(=O)N[C@H](C(=O)N[C@@H](C)C(=O)N[C@@H](CCC(=O)O)C(=O)N[C@H](C(N)=O)[C@@H](C)CC)[C@@H](C)O)[C@@H](C)CC)[C@@H](C)CC)[C@@H](C)CC [compound 1999, Nle8, L11, dW12, W23-LA-PTH(5-36)-1999] (H-IQL[Nle]HQL[dW]KWIQDARRRAWLHKLIAEIHTAEI-NH2; N-terminus assumed) | 8.56 | –
CC[C@H](C)[C@H](NC(=O)[C@H](CCC(=O)O)NC(=O)[C@H](C)NC(=O)[C@@H](NC(=O)[C@H](Cc1c[nH]cn1)NC(=O)[C@@H](NC(=O)[C@H](CCC(=O)O)NC(=O)[C@H](C)NC(=O)[C@@H](NC(=O)[C@H](CC(C)C)NC(=O)[C@H](CCCCN)NC(=O)[C@H](Cc1c[nH]cn1)NC(=O)[C@H](CC(C)C)NC(=O)[C@H](Cc1c[nH]c2ccccc12)NC(=O)[C@H](C)NC(=O)[C@H](CCCNC(=N)N)NC(=O)[C@H](CCCNC(=N)N)NC(=O)[C@H](CCCNC(=N)N)NC(=O)[C@H](C)NC(=O)[C@H](CC(=O)O)NC(=O)[C@H](CCC(N)=O)NC(=O)[C@@H](NC(=O)[C@H](Cc1c[nH]c2ccccc12)NC(=O)[C@H](CCCCN)NC(=O)[C@@H](Cc1c[nH]c2ccccc12)NC(=O)[C@H](CC(C)C)NC(=O)[C@H](CCC(N)=O)NC(=O)[C@H](Cc1c[nH]cn1)NC(=O)[C@H](CCSC)NC(=O)[C@@H](N)CC(C)C)[C@@H](C)CC)[C@@H](C)CC)[C@@H](C)CC)[C@@H](C)O)C(N)=O [compound 2001, L11, dW12, W23-LA-PTH(7-36)-2001] (H-LMHQL[dW]KWIQDARRRAWLHKLIAEIHTAEI-NH2; N-terminus assumed) | 8.68 | –

These reach a higher pIC50 [1]. Values come first.

pIC50 [1] | Structure (SMILES) | other results
8.81 | CCCC[C@H](NC(=O)[C@@H](N)CC(C)C)C(=O)N[C@@H](Cc1c[nH]cn1)C(=O)N[C@@H](CCC(N)=O)C(=O)N[C@@H](CCCNC(=N)N)C(=O)N[C@H](Cc1c[nH]c2ccccc12)C(=O)N[C@@H](CCCCN)C(=O)N[C@@H](Cc1c[nH]c2ccccc12)C(=O)N[C@H](C(=O)N[C@@H](CCC(N)=O)C(=O)N[C@@H](CC(=O)O)C(=O)N[C@@H](C)C(=O)N[C@@H](CCCNC(=N)N)C(=O)N[C@@H](CCCNC(=N)N)C(=O)N[C@@H](CCCNC(=N)N)C(=O)N[C@@H](C)C(=O)N[C@@H](Cc1c[nH]c2ccccc12)C(=O)N[C@@H](CC(C)C)C(=O)N[C@@H](Cc1c[nH]cn1)C(=O)N[C@@H](CCCCN)C(=O)N[C@@H](CC(C)C)C(=O)N[C@H](C(=O)N[C@@H](C)C(=O)N[C@@H](CCC(=O)O)C(=O)N[C@H](C(=O)N[C@@H](Cc1c[nH]cn1)C(=O)N[C@H](C(=O)N[C@@H](C)C(=O)N[C@@H](CCC(=O)O)C(=O)N[C@H](C(N)=O)[C@@H](C)CC)[C@@H](C)O)[C@@H](C)CC)[C@@H](C)CC)[C@@H](C)CC [compound 1992, Nle8, dW12, W23-LA-PTH(7-36)-1992] (H-L[Nle]HQR[dW]KWIQDARRRAWLHKLIAEIHTAEI-NH2; N-terminus assumed) | –
8.84 | CC[C@H](C)[C@H](N)C(=O)N[C@@H](CCC(N)=O)C(=O)N[C@@H](CC(C)C)C(=O)N[C@@H](CCSC)C(=O)N[C@@H](Cc1c[nH]cn1)C(=O)N[C@@H](CCC(N)=O)C(=O)N[C@@H](CCCNC(=N)N)C(=O)N[C@H](Cc1c[nH]c2ccccc12)C(=O)N[C@@H](CCCCN)C(=O)N[C@@H](Cc1c[nH]c2ccccc12)C(=O)N[C@H](C(=O)N[C@@H](CCC(N)=O)C(=O)N[C@@H](CC(=O)O)C(=O)N[C@@H](C)C(=O)N[C@@H](CCCNC(=N)N)C(=O)N[C@@H](CCCNC(=N)N)C(=O)N[C@@H](CCCNC(=N)N)C(=O)N[C@@H](C)C(=O)N[C@@H](Cc1c[nH]c2ccccc12)C(=O)N[C@@H](CC(C)C)C(=O)N[C@@H](Cc1c[nH]cn1)C(=O)N[C@@H](CCCCN)C(=O)N[C@@H](CC(C)C)C(=O)N[C@H](C(=O)N[C@@H](C)C(=O)N[C@@H](CCC(=O)O)C(=O)N[C@H](C(=O)N[C@@H](Cc1c[nH]cn1)C(=O)N[C@H](C(=O)N[C@@H](C)C(=O)N[C@@H](CCC(=O)O)C(=O)N[C@H](C(N)=O)[C@@H](C)CC)[C@@H](C)O)[C@@H](C)CC)[C@@H](C)CC)[C@@H](C)CC [compound 1949, dW12, W23-LA-PTH(5-36)] (H-IQLMHQR[dW]KWIQDARRRAWLHKLIAEIHTAEI-NH2; N-terminus assumed) | pIC50 (antagonist pre-treatment 10 minutes, PTHrP(1-36) 0.3 nM, seven experiments, read-out: corresponding nanomolar value vs. PTHrP(1-36) (Table 5)): 9.00; IC50 (antagonist pre-treatment 10 minutes, PTHrP(1-36) 0.3 nM, seven experiments, read-out: pIC50 vs. PTHrP(1-36) (Table 5) (converted)): 0.794 nM; pIC50 (antagonist pre-treatment 15 minutes, PTHrP(1-36) 0.3 nM, read-out: IC50 PTHrP(1-36) (Table 6, nanomolar value)): 8.92; pIC50 (corresponding nanomolar value vs. PTH(1-34) (Table 5), antagonist pre-treatment 10 minutes, PTH(1-34) 0.3 nM, seven experiments): 9.00; pIC50 (pIC50 vs. PTH(1-34) (Table 5), antagonist pre-treatment 10 minutes, PTH(1-34) 0.3 nM, seven experiments): 9.11
8.91 | CC[C@H](C)[C@H](NC(=O)[C@H](CCC(=O)O)NC(=O)[C@H](C)NC(=O)[C@@H](NC(=O)[C@H](Cc1c[nH]cn1)NC(=O)[C@@H](NC(=O)[C@H](CCC(=O)O)NC(=O)[C@H](C)NC(=O)[C@@H](NC(=O)[C@H](CC(C)C)NC(=O)[C@H](CCCCN)NC(=O)[C@H](Cc1c[nH]cn1)NC(=O)[C@H](CC(C)C)NC(=O)[C@H](Cc1c[nH]c2ccccc12)NC(=O)[C@H](C)NC(=O)[C@H](CCCNC(=N)N)NC(=O)[C@H](CCCNC(=N)N)NC(=O)[C@H](CCCNC(=N)N)NC(=O)[C@H](C)NC(=O)[C@H](CC(=O)O)NC(=O)[C@H](CCC(N)=O)NC(=O)[C@@H](NC(=O)[C@H](Cc1c[nH]c2ccccc12)NC(=O)[C@H](CCCCN)NC(=O)[C@@H](Cc1c[nH]c2ccccc12)NC(=O)[C@H](CCCNC(=N)N)NC(=O)[C@H](CCC(N)=O)NC(=O)[C@H](Cc1c[nH]cn1)NC(=O)[C@H](CCSC)NC(=O)[C@@H](N)CC(C)C)[C@@H](C)CC)[C@@H](C)CC)[C@@H](C)CC)[C@@H](C)O)C(N)=O [compound 1990, dW12, W23-LA-PTH(7-36)-1990] (H-LMHQR[dW]KWIQDARRRAWLHKLIAEIHTAEI-NH2; N-terminus assumed) | –
